Tested on: Nesprin-2 (SYNE2)
Experiment: Assay for upregulation of Nesprin-2 mRNA (Panomics Quantigene multiplex branched DNA assay) in fibroblasts
Assay type: cell-based, human
Settings: 24 hours, vs vehicle control
Protocol: A variety of botanical extract and synthetic compounds were tested for the ability to up-regulate […]-2 (SYNE2), Gene Accession Number-NM-182914.2. Normal human dermal fibroblasts or keratinocytes were cultured in 96-well tissue culture treated plates, containing appropriate culture medium. Stock solutions of actives were made in an appropriate vehicle (water/Ethanol/DMSO). Cells were treated with test material or respective vehicle control diluted in growth medium for 24 hours in a humidified 37° C. incubator with 10% CO2. The concentrations of each extract are provided based on the dry weight of the given plant extract, by which is meant the weight of the extract after volatile extraction solvents have been removed. After incubation, growth medium from each plate was removed and 100 μL of lysis buffer was added to the wells and placed in 37° C. incubator with 10% CO2 for 30 minutes. At the end of incubation, the cells are collected in freezer plates and placed in -80° C. freezer, until analysis. Changes in mRNA for after treatment were analysed using Panomics Quantigene multiplex assay that employs a branched DNA technology, following manufacturer's instructions (Affymetrix, CA). Percent increase (up-regulation) in mRNA for the […]-2 was calculated by comparing the test results to the control.

C[C@@H]1NC(=O)N[C@@H]1CCCCCC(=O)O [D-Desthiobiotin]
Nesprin-2 (percent up-regulation in mRNA, scaled score) (0.0001%): ++++ (0.001%, (>80 (++++))
Nesprin-2 (percent up-regulation in mRNA, scaled score) (0.001%): ++++ (0.001%, (>80 (++++))
